Among the data in patent US6709675B1, “Thixotropic formulations for filling capsules” (Pierre Fabre Medicament, priority 1998, dated 2004) are solubility and solubility in water values, retold here.

The nature of one series: physchem. The following applies: water.

Where a name gives a salt, the structure may show the parent alone.

The compound `CCN(CC)C(=O)C1(c2ccccc2)CC1CN` (centres unmarked) [milnacipran hydrochloride] showed a solubility in “physchem” of 600 mg/mL.

baquimast displayed a solubility in water in the series “Solubility in water” of 0.23 mg/mL.
